According to ChEMBL document CHEMBL1201862, “PubChem BioAssay data set” (2004):
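96-well plates; 48 h exposure; 5 concentrations. Endpoints by linear interpolation between flanking doses. Not reached: highest tested concentration assigned. GI50 is the concentration that inhibits growth by half.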 Calls of active or inactive are those of the source. Rule as the data show it: active = GI50 up to about 1.1 µM and inactive = higher.

Tests used:
Test in all cases: NCI tumour cell line growth inhibition, 48 h
UACC-62 = system: UACC-62
T47D = system: T47D
786-0 = system: 786-0
SW-620 = system: SW-620
NCI/ADR-RES = system: NCI/ADR-RES
HL-60 = system: HL-60
K562 = system: K562
SK-MEL-28 = system: SK-MEL-28
HCC 2998 = system: HCC 2998
DU-145 = system: DU-145
RXF 393 = system: RXF 393
HCT-15 = system: HCT-15
Malme-3M = system: Malme-3M
SK-MEL-5 = system: SK-MEL-5
EKVX = system: EKVX
MDA-MB-231 = system: MDA-MB-231
OVCAR-8 = system: OVCAR-8
BT-549 = system: BT-549
HOP-92 = system: HOP-92
NCI-H460 = system: NCI-H460

Measured: GI50

O=c1[nH]cnc2c1ncn2C1SC(CO)C(O)C1O (centres undefined)
> 100 µM: HCT-15
inactive: UACC-62 > 100 µM | T47D > 100 µM | 786-0 > 100 µM | SW-620 > 100 µM | NCI/ADR-RES > 100 µM | HL-60 > 100 µM | K562 > 100 µM | SK-MEL-28 > 100 µM | HCC 2998 > 100 µM | DU-145 > 100 µM | RXF 393 > 100 µM | Malme-3M > 100 µM | SK-MEL-5 > 100 µM | EKVX > 100 µM | MDA-MB-231 > 100 µM | OVCAR-8 > 100 µM | BT-549 > 100 µM | HOP-92 > 100 µM | NCI-H460 > 100 µM

CC(C)=CCC[C@H](C)[C@H]1CC[C@@H](C)c2cc(O)c(C)cc21
18.3 µM: HCT-15
inactive: UACC-62 14.5 µM | T47D 16.9 µM | 786-0 18.6 µM | SW-620 23.1 µM | NCI/ADR-RES 19.5 µM | HL-60 21.1 µM | K562 20.1 µM | SK-MEL-28 18.5 µM | HCC 2998 18.9 µM | DU-145 19.5 µM | RXF 393 20.7 µM | Malme-3M 18.6 µM | SK-MEL-5 16.2 µM | EKVX 17.6 µM | MDA-MB-231 18.2 µM | OVCAR-8 18.5 µM | BT-549 17.9 µM | HOP-92 16.7 µM | NCI-H460 18.4 µM

Cc1ccc(N(C=O)c2c([N+](=O)[O-])cc([N+](=O)[O-])c3c2=[N+]([O-])CN=3)cc1
15.4 µM: HCT-15
inactive: UACC-62 11.9 µM | T47D 17.5 µM | 786-0 27 µM | SW-620 45.4 µM | NCI/ADR-RES 30.7 µM | HL-60 23 µM | K562 27.3 µM | SK-MEL-28 49.4 µM | HCC 2998 14 µM | DU-145 27.2 µM | RXF 393 20.7 µM | Malme-3M 20.3 µM | SK-MEL-5 13.5 µM | EKVX > 100 µM | MDA-MB-231 18.5 µM | OVCAR-8 28.5 µM | BT-549 18.7 µM | HOP-92 16.2 µM | NCI-H460 > 100 µM

Cn1c(COC(=O)Nc2ccccc2)c(COC(=O)Nc2ccccc2)c2ccc3cc(Cl)c(Cl)cc3c21
active: K562 1.07 µM
inactive: UACC-62 6.24 µM | T47D 1.53 µM | 786-0 2.76 µM | SW-620 2.69 µM | NCI/ADR-RES 16.4 µM | HL-60 2.46 µM | SK-MEL-28 3.61 µM | HCC 2998 5.5 µM | DU-145 11.3 µM | RXF 393 9.64 µM | Malme-3M 1.74 µM | SK-MEL-5 4.62 µM | EKVX 15.9 µM | MDA-MB-231 3.33 µM | OVCAR-8 6.73 µM | BT-549 2.58 µM | HOP-92 2.1 µM | NCI-H460 8.2 µM
4.4 µM: HCT-15

O=C(O)c1ccccc1CC1Cc2ccccc2C1=O (centres undefined)
inactive: UACC-62 > 100 µM | T47D > 100 µM | 786-0 > 100 µM | SW-620 > 100 µM | NCI/ADR-RES > 100 µM | HL-60 > 100 µM | K562 > 100 µM | SK-MEL-28 > 100 µM | HCC 2998 > 100 µM | DU-145 > 100 µM | RXF 393 > 100 µM | Malme-3M > 100 µM | SK-MEL-5 > 100 µM | EKVX > 100 µM | MDA-MB-231 > 100 µM | OVCAR-8 > 100 µM | BT-549 > 100 µM | HOP-92 > 100 µM | NCI-H460 > 100 µM
> 100 µM: HCT-15

NC(CCC(=O)c1ccccn1)C(=O)O (centres undefined)
> 100 µM: HCT-15
inactive: UACC-62 > 100 µM | T47D > 100 µM | 786-0 > 100 µM | SW-620 > 100 µM | NCI/ADR-RES > 100 µM | HL-60 > 100 µM | SK-MEL-28 > 100 µM | HCC 2998 > 100 µM | DU-145 > 100 µM | RXF 393 > 100 µM | Malme-3M > 100 µM | SK-MEL-5 > 100 µM | EKVX > 100 µM | MDA-MB-231 > 100 µM | OVCAR-8 > 100 µM | BT-549 > 100 µM | HOP-92 > 100 µM | NCI-H460 > 100 µM
